Source: article PMC9994261 (Cell, 2023)
Values after ≈ are worked out from the molar mass of the structure shown. Values joined by “and” are separate entries in the source; they are usually repeats but may differ in a detail not shown here. Identical values can stand only once. Like-named read-outs stand apart in the source and are kept apart here.

Legend:
[1] = system: Mtb H37Rv; assay: MIC80 after overnight pre-incubation of Mtb with subinhibitory macrolide; assay type: cell-based; settings: Mycobacterium tuberculosis, read-out: MIC80
[2] = system: Mtb methylated ribosome; assay: Mtb in vitro translation assay with methylated (erythromycin-treated) ribosome; assay type: biochemical, Mycobacterium tuberculosis
[3] = system: Mtb H37Rv; assay: microbe, parasite or virus in culture; assay type: cell-based, Mycobacterium tuberculosis; settings: read-out: MIC for Mtb in liquid culture
[4] = system: M. bovis BCG Pasteur; assay: microbe, parasite or virus in culture; assay type: cell-based, Mycobacterium bovis; settings: for MIC: read-out: MIC in Pasteur M. bovis BCG
[5] = system: erm37 mRNA; assay type: cell-based, Mycobacterium tuberculosis; settings: inducer at 0.25µg/ml overnight, normalized to 23S
[6] = system: Mtb ribosome; assay type: biochemical, Mycobacterium tuberculosis
[7] = physchem; assay type: physicochemical
[8] = in vivo; settings: male, Swiss, mouse, po; for AUC: 30 mg/kg, oral 30 mg/kg
[9] = in vitro; assay type: in vitro ADME; settings: human, Caco-2; read-out: Permeability in Caco2 cells (Papp)
[10] = physchem; settings: pH 7.4
[11] = assay type: in vitro ADME
[12] = assay type: in vitro ADME, human; settings: for Metabolic stability in human liver microsomes (% metabolized compound after 20 min): 20 min incubation; for Metabolic stability in human liver microsomes (% metabolized compound after 20 min), (K): in presence of ketoconazole CYP3A inhibitor (K); for Metabolic stability in human liver microsomes (% metabolized compound after 20 min), (Q): in presence of quinidine CYP2D6 inhibitor (Q)
Protocol: The metabolic stability of test compounds was determined as described.[57]^,[58] Incubation and experimental conditions with human hepatic microsomal fractions (purchased from BD Gentest as a pooled batch from 6 donors) were as follows: microsomal proteins, 1 mg/mL; bovine serum albumin, 1 mg/mL; substrate, 5 μM; incubation duration, 20 min; cytochrome P-450 monooxygenases (CYPs) and flavin containing monooxygenases (FMOs) cofactor, 1 mM NADPH. Enzyme activity was stopped with 1 volume of acetonitrile. […] For each test compound and for each microsomal preparation, three incubations were prepared: absolute reference in buffer (without enzyme material, i.e., microsomes); incubation without NADPH cofactor (with microsomal fractions); and incubation with NADPH (with microsomal fractions). For most compounds, biotransformation, as observed in hepatic microsomal fractions in the presence of the NADPH cofactor, consists of oxidative reactions catalyzed by either CYPs or FMOs. In these conditions, the percentage of total metabolism, which corresponds to oxidative metabolism, was determined as follows: [% total metabolism] ≈ [% oxidative metabolism] = [unchanged compound (UC) peak area − NADPH UC peak area + NADPH] × 100%, where NADPH corresponds to the enzyme cofactor for oxidation reactions catalyzed by either CYP or FMO.

[13] = molecular target: T1, CYP3A4 (Homo sapiens, UniProt P08684); assay: CYP3A4 reversible inhibition in human liver microsomes; assay type: in vitro ADME
T1 construct: human liver microsomes (purchased from BD Gentest as a pooled batch from 150 donors); tissue BD Gentest Cat#452117; host or cells: pooled human liver microsomes (150 donors)
Protocol: Incubations were performed with 0.1 mg/mL human liver microsomes (purchased from BD Gentest as a pooled batch from 150 donors) in a final incubation volume of 0.25 mL. The incubation medium contained 0.05 M phosphate buffer (pH 7.4) containing an NADPH regenerating system (including 1.3 mM NADP, 3.3 mM glucose 6-phosphate,3.3 mM MgCl2, and 1.0 U/mL glucose 6-phosphate dehydrogenase). Probe CYP3A4 substrates (midazolam at 3 μM and testosterone at 50 μM), were incubated for 10 and 30 min, respectively, with increasing concentrations of GM, MGM or CGM (concentration range: 1 - 30 μM). The reaction was stopped by adding acetonitrile to precipitate the proteins. The incubation mixtures were then centrifuged for 5 min at 10,000 × g, and an aliquot of the supernatant was analyzed using high-performance liquid chromatography coupled to mass spectrometry for the assessment of 1’-hydroxymidazolam and 6β-hydroxytestosterone metabolite formation.

[14] = assay type: in vitro ADME; remark: listed apart in the source
[15] = physchem
[16] = pH 2, 50% acetonitrile/water
[17] = system: GFP-expressing Mtb H37Rv in RAW264.7 macrophages; assay: Intramacrophage assay (MIC for Mtb in macrophages); assay type: cell-based, Mycobacterium tuberculosis; settings: for MIC: Mycobacterium tuberculosis, H37RV, read-out: MIC for Mtb tuberculosis in macrophages
[18] = assay type: in vitro ADME; remark: listed apart in the source
[19] = system: RAW264.7 cells; assay type: in vitro ADME, murine; settings: versus neutral analog SEQ-416
Protocol: RAW264.7 cells were allowed to adhere in 96 wells plates for 4 hours before compounds were added at 10 μM. Intracellular concentrations were measured by LC-MS/MS after cellular lysis. For each point, up to 4 hours, the Intra/Extra cellular ratio was calculated. Points are the mean ± SD of four tests. Clarithromycin and Azithromycin were used as references.

[20] = Mycobacterium tuberculosis variant bovis BCG, BCG
[21] = MCT pH 7.4, read-out: Solubility: MCT@pH 7.4
[22] = aqueous buffer, PBS pH 7.4, read-out: Solubility: PBS@pH 7.4
[23] = AUC in plasma @30 mg/kg, plasma
[24] = read-out: Translation inhibition of Mtb methylated ribosome (IC50 μM)
[25] = Mycobacterium tuberculosis, H37RV
[26] = midazolam, read-out: CYP3A4 inhibition, IC50 with midazolam as substrate
[27] = testosterone, read-out: CYP3A4 inhibition, IC50 with testosterone as substrate (T)
[28] = read-out: Inhibition of Mtb translation (IC50 μM)

T1 sequence (P08684 whole entry): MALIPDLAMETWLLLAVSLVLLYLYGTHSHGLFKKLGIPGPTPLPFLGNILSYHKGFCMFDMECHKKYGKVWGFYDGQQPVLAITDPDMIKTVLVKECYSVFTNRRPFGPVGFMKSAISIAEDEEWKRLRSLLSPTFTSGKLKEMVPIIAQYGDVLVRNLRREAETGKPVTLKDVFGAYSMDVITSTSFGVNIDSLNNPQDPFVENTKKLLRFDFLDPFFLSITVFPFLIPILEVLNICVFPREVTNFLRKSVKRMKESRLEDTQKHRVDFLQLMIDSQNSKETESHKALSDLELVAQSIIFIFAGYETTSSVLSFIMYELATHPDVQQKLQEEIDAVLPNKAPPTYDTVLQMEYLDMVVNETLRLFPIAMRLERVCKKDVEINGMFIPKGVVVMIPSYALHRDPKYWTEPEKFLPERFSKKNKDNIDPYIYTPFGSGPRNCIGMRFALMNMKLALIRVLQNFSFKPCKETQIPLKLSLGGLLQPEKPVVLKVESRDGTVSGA

SMILES | MIC [4, 20] [µM] | solubility [7, 21] [µg/mL] | solubility [7, 22] [µg/mL] | bioavailability [8] [%] | AUC ([8]; AUC in lung @30 mg/kg, lung) [ng·h/mL] | AUC [8, 23] [ng·h/mL] | Papp [9] [×10⁻⁶ cm/s] | logD [10] | IC50 [2, 24] [µM] | Metabolic degradation/clearance from human liver microsomes [11] [mL/h/10^6 hepatocytes] | MIC [3, 25] [µM] | Metabolic stability in human liver microsomes (% metabolized compound after 20 min) [12] [%] | Metabolic stability in human liver microsomes (% metabolized compound after 20 min), (K) [12] | Metabolic stability in human liver microsomes (% metabolized compound after 20 min), (Q) [12] | IC50 [13, 26] [nM] | IC50 [13, 27] [nM] | Metabolic stability in mouse liver microsomes (% metabolized compound after 20 min) [14] [%] | Chemical stability: t/12@pH 2 [16] | MIC [17] [µM] | Metabolic stability in rat liver microsomes (% metabolized compound after 20 min) [18] [%] | also measured
CC[C@H]1OC(=O)[C@H](C)[C@@H](O[C@H]2C[C@@](C)(OC)[C@@H](O)[C@H](C)O2)[C@H](C)[C@@H](O[C@@H]2O[C@H](C)C[C@H](N(C)C)[C@H]2O)[C@](C)(OC)C[C@@H](C)C(=O)[C@H](C)[C@@H](O)[C@]1(C)O [Clarithromycin] | 0.1 (≈ 0.0748 µg/mL) |  |  |  |  |  |  |  |  |  |  |  |  |  |  |  |  |  |  |  | MIC80 ([1]; Without induction): 2 µM (≈ 1.5 µg/mL); MIC80 ([1]; overnight pre-incubation with SEQ-9 0.125µg/ml): 4 µM (≈ 2.99 µg/mL); MIC80 ([1]; overnight pre-incubation with SEQ-9 0.25µg/ml): 8 µM (≈ 5.98 µg/mL); MIC80 ([1]; overnight pre-incubation with clarithromycin 0.125µg/ml): 8 µM (≈ 5.98 µg/mL); MIC80 ([1]; overnight pre-incubation with clarithromycin 0.25µg/ml): 8 µM (≈ 5.98 µg/mL); IC50 ([2]; methylated ribosome, read-out: IC50 methylated ribosome): 88.1 µM; MIC ([3]; listed as clarithromycin): 8 µM (≈ 5.98 µg/mL); MIC [3]: 2 µM (≈ 1.5 µg/mL); erm37 mRNA fold change [5]: 57 fold change; IC50 ([6]; non-methylated ribosome, read-out: IC50 ribosome): 0.354 µM
CON=C1C[C@@H](C)O[C@@H](O[C@@H]2[C@@H](C)[C@H](O[C@H]3C[C@@H](C)N(C)C[C@H](C)O3)[C@@H](C)C(=O)O[C@H](C(C)CO[C@@H]3O[C@H](C)[C@@H](O)[C@@H](OC)[C@H]3OC)[C@H](C)[C@@H](OC(=O)CC(C)C)[C@@H](C)C(=O)[C@@](C)(OC(=O)NCc3ccccc3)C[C@@H]2C)[C@@H]1O (stereo partly drawn) [SEQ-372, (2R,3S,4R,5R,7S,9S,10S,11R,12S,13R)-7-[(benzylcarbamoyl)oxy]-2-(1-{[(2R,3R,4R,5R,6R)-5-hydroxy-3,4-dimethoxy-6-methyltetrahydro-2H-pyran-2-yl]oxy}propan-2-yl)-10-{[(2S,3R,6R)-3-hydroxy-4-(methoxyimino)-6-methyltetrahydro-2H-pyran-2-yl]oxy}-3,5,7,9,11,13-hexamethyl-6,14-dioxo-12-{[(2S,5R,7R)-2,4,5-trimethyl-1,4-oxazepan-7-yl]oxy}oxacyclotetradecan-4-yl 3-methylbutanoate] | 0.28 (≈ 0.314 µg/mL) | 1420 (≈ 1270 µM) | 58.8 (≈ 52.4 µM) | 17 | 18000 | 900 | 2.2 | 4.93 | 0.054 | 0.006 | 0.54 (≈ 0.606 µg/mL) | 33 | 19(K) % | /32 (Q) % | 1200 | 3800 | 8 | ∼25 h | 0.06 (≈ 0.0673 µg/mL) | 22 | Growth inhibition (MIC80) [4]: 0.29 µM and 0.25 µM and 0.34 µM; MIC80 ([4]; Mycobacterium tuberculosis variant bovis BCG, BCG, read-out: Growth inhibition (MIC80)): 0.28 µM (≈ 0.314 µg/mL); Cytochrome 3A4 inhibition (in words) ([13]; human, pH 7.4): inhibited cytochrome 3A4; pKa [15]: 8.2; Increased potency against Mtb in the macrophage compared with SEQ-416 ([17]; versus SEQ-416): approximately 10 fold; Increase in macrophage accumulation compared with SEQ-416 [19]: 20 fold; IC50 [6, 28]: 0.039 µM
CO/N=C1\C[C@@H](C)O[C@@H](O[C@@H]2[C@@H](C)[C@H](O[C@H]3C[C@@](C)(O)[C@@H](O)[C@H](C)O3)[C@@H](C)C(=O)O[C@H]([C@@H](C)CO[C@@H]3O[C@H](C)[C@@H](O)[C@@H](OC)[C@H]3OC)[C@H](C)[C@@H](OC(=O)CC(C)C)[C@@H](C)C(=O)[C@@](C)(OC(=O)NCc3ccccc3)C[C@@H]2C)[C@@H]1O [SEQ-416, [(2R,3S,4R,5R,7S,9S,10S,11R,12S,13R)-7-(benzylcarbamoyloxy)-12-[(2R,4R,5S,6S)-4,5-dihydroxy-4,6-dimethyl-tetrahydropyran-2-yl]oxy-2-[(1S)-2-[(2R,3R,4R,5R,6R)-5-hydroxy-3,4-dimethoxy-6-methyl-tetrahydropyran-2-yl]oxy-1-methyl-ethyl]-10-[(2S,3R,4E,6R)-3-hydroxy-4-methoxyimino-6-methyl-tetrahydropyran-2-yl]oxy-3,5,7,9,11,13-hexamethyl-6,14-dioxo-oxacyclotetradec-4-yl] 3-methylbutanoate] |  | 599 (≈ 532 µM) | 22 (≈ 19.5 µM) | 21 | 4800 | 4000 | 10.4 | 4.5 | 0.031 | 0.057 | 0.15 (≈ 0.169 µg/mL) | 40 | 0.5(K) % | /35(Q) % | 3000 | 10000 | 25 | ∼6 h | 0.63 (≈ 0.709 µg/mL) | 22 | IC50 [6, 28]: 0.044 µM
